Reference: patent US20150259371A1, “METHODS AND COMPOUNDS FOR INHIBITING GLYCOSYLTRANSFERASES” (SIMON FRASER UNIVERSITY, priority 2010, published 2015)

What was measured:
CHO cells = assay: Cell proliferation growth curves over 5 days, CHO cells; assay type: cell-based, Chinese hamster; details: 50 μM
Procedure: (A) Cell proliferation curves over the course of 5 days for CHO cells following no (circles), 50 μM Ac-GlcNAc (squares) or 50 μM Ac-5SGlcNAc (triangles) treatment. The error bars indicate the deviation from the mean for triplicate measurements. […] Upper panel, probed with anti-O-GlcNAc antibody (CTD110.6); lower panel, probed with anti-actin antibody. (B) Cell proliferation curves over the course of 5 days for EMEG heterozygous mouse embryonic fibroblast cells following no (circles), 50 μM Ac-GlcNAc (squares) or 50 μM Ac-5SGlcNAc (triangles) treatment. The error bars indicate the deviation from the mean for triplicate measurements. […] Upper panel, probed with anti-O-GlcNAc antibody (CTD110.6); lower panel, probed with anti-actin antibody. (C) Western blots of CHO cell lysates following no (C) or Ac-5SGlcNAc administration at 50 μM for 4 days. Probed with (from top to bottom) anti-Spl antibody, anti O-GlcNAc (CTD110.6) antibody and anti-actin antibody. Full blot of the anti-Sp 1 is shown in panel (d). […]
(§1) Cellular responses to Ac-5SGlcNAc (9) treatment and consequent decreases in O-GlcNAc levels were evaluated. […] We quantitatively evaluated cell proliferation and established growth curves over the course of 5 days in both CHO and EMEG32 heterozygous mouse embryonic fibroblast cells treated with 50 μM Ac-5SGlcNAc (9), 50 μM Ac-GlcNAc (G), or vehicle (FIGS. 5A-B).

cell lines examined = assay: Qualitative observation of cell morphology and proliferation in treated cell lines; assay type: cell-based; details: at the doses assayed
Procedure: Despite OGA levels continuing to drop and OGT levels rising over 5 days of dosing, O-GlcNAc levels remained low and unchanged after 24 hours (FIG. 2C).
as §1

OGA = assay: Western blot of OGA levels in treated COS-7 cells; assay type: cell-based, African green monkey; details: 50 μM, 24 h
Procedure: (§2) Westernlectin blots: Samples were run on 10% SDS polyacrylamide gels and transferred onto nitrocellulose membranes (Biorad). Membranes were blocked for 1 h in PBS containing 0.1% Tween-20 (PBS-T) containing 1% (unless otherwise stated) bovine serum albumin (BSA), and probed with the appropriate primary antibody or lectin in 1% BSA in PBS-T overnight at 4° C. Blots were washed for 1 hr with PBS-T, and blocked for a further 30 min with 1% BSA in PBS-T at room temperature. They were then probed with the appropriate horseradish peroxidise (HRP)-conjugated secondary antibodyprobe in 1% BSA in PBS-T at room temperature for 1 h, followed by washing in PBS-T for 1 h. Blots were developed with SuperSignal West Pico Chemiluminescent Substrate (Pierce) and exposed to CL-XPosure film (Pierce). Densitometry was performed using ImageQuant 5.2 (Molecular Dynamics), and fits to the data were made using GRAFIT^41.
(§3) Antibodieslectins: O-GlcNAc levels were assessed primarily using CTD110.6 (Covance), but RL2 (Abcam) and HGAC85 (Abcam) were also tested. Actin was probed using JLA20 (Developmental Studies Hybridoma Bank). OGA levels were assessed using a polyclonal anti-OGA antibody which was a kind gift from Dr. Gerald Hart and OGT levels using H-300 (Santa Cruz Biotechnology). nup62 was probed using mAb 414 (Covance). […]

[1] = system: N-glycosylation of IgG from mouse hybridoma cell line; assay: Lectin blots of IgG immunoprecipitated from treated mouse hybridoma cells; assay type: cell-based; details: 0-1000 μM, 24 h
[2] = system: N-glycosylation in COS-7 cells; assay: Lectin blots of glycans in treated COS-7 cells; assay type: cell-based, African green monkey; details: COS-7, 0-1000 μM, 24 h
Procedure: as §2, with “Blots were developed with SuperSignal West Pico Chemiluminescent Substrate (Pierce) and exposed to CL-XPosure film (Pierce). Densitometry was performed using ImageQuant 5.2 (Molecular Dynamics), and fits to the data were made using GRAFIT^41.” left out
as §3, with “Actin was probed using JLA20 (Developmental Studies Hybridoma Bank).” left out
To assess whether cell surface glycosylation could be affected through changes in UDP-GlcNAc availability or inhibition of GlcNAc transferases within the secretory pathway, we treated COS-7 cells with a range of Ac-5SGlcNAc concentrations and evaluated the effect on various glycans using lectin blots. […]

[3] = system: O-GlcNAc levels in CHO cells; assay: Western blot of O-GlcNAc levels (CTD110.6) in treated CHO cells; assay type: cell-based, Chinese hamster
Procedure: Cell culture: Cells were grown in an incubator at 37° C. and 5% CO2 atmosphere. Media and serum were purchased from Invitrogen. COS-7 cells were cultured in Dulbecco's modified Eagle's medium (DMEM) with 5% fetal bovine serum (FBS), and were typically 80-100% confluent prior to experimentation. HepG2, SK-N-SH, and EMEG32^−/− cells were cultured in Dulbecco's modified Eagle's medium (DMEM) with 5% fetal bovine serum (FBS), CHO cells in DMEMF-12 with 5% FBS and PC12 cells in DMEM with 5% FBS and 5% horse serum. Prior to experimentation, PC12 cells were plated at a density of 3-4×10^5 cells10 cm plate, which had been pre-treated with 5 μgcm^2 rat tail collagen (BD Biosciences). Cells were differentiated in DMEM containing 1% horse serum, in the presence of 2.5S mouse nerve growth factor (Chemicon) at a final concentration of 25 ng mL^−1, for 4-5 days prior to treatment. Other cell lines were 80-100% confluent prior to treatment. […]
as §3, with “Actin was probed using JLA20 (Developmental Studies Hybridoma Bank).” left out

SMILES: CC(=O)NC1C(OC(C)=O)SC(COC(C)=O)C(OC(C)=O)C1OC(C)=O [Compound 9, N-Acetyl-1,3,4,6-tetra-O-acetyl-α-D-5-thio-glucosamine]
- growth rate (CHO cells): indistinguishable from those of Ac-GlcNAc (G) and vehicle treated cells
- changes in cell morphology or rate of proliferation (cell lines examined): no apparent changes in cell morphology or rate of proliferation
- OGA levels (OGA): compensatory decrease in OGA levels
- GNA and ConA reactivity of hybridoma IgG [1]: slight decrease in GNA and ConA reactivity when using a very high dose
- glycosylation by lectin blots (ConA, GNA, PHA-L, SNA, MAA) [2]: All lectins tested showed no change in glycosylation
- O-GlcNAc levels at last time point of growth curve ([3]; 50 μM, 5 days): O-GlcNAc levels are still significantly decreased in cells treated with Ac-5SGlcNAc
- EC50 ([3]; Cricetulus griseus, 24 h, read-out: EC50 for reduction of O-GlcNAc levels): 800 nM
